# Laboratory results: the supplement of paper PMC10307832
# Compound: C1=CC2=NC=CN=C2C=C1/C=C/3\C(=O)NC(=O)S3 + NC(=O)Nc1cc(-c2cccc(F)c2)sc1C(=O)N[C@H]1CCCNC1 [AZD7762] (partner 0.2 µM)
# Experiment: relative viability (nuclei count vs DMSO), 5 days (fraction); higher = more cells survive
# Details: first compound 0.02 µM
# Outline: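 Lung cancer cell lines, seeded in 1536-well plates, were treated the following day by pin tool with a single drug or with five library-drug doses (not always all listed) in √10 steps on top of a fixed anchor-drug dose. Cells were fixed and nuclei stained in one step after 5 days, and nuclei were counted. Relative viability is the nuclei count for treated wells divided by that for vehicle wells, reported as medians of duplicate plates.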
row,Cell Line,relative viability
1,NCI-H2405,0.824
2,HOP-62,0.847
3,LU99A,0.392
4,BEN,0.727
5,HARA,0.255
6,HCC-78,0.681
7,NCI-H322M,0.559
8,LCLC-97TM1,0.21
9,A-427,0.826
10,NCI-H441,1.07
11,NCI-H1734,0.579
12,NCI-H460,0.581
13,NCI-H2347,0.773
14,NCI-H1395,0.392
15,201T,0.651
16,NCI-H1915,0.704

row,Cell Line,relative viability
1,HCC-827,0.218
2,LXF-289,1.06
3,NCI-H23,0.227
4,NCI-H647,0.714
5,CAL-12T,0.675
6,NCI-H1651,0.472
7,EPLC-272H,0.332
8,NCI-H1355,0.789
9,NCI-H3122,0.989
10,NCI-H1437,1.18
11,NCI-H1755,0.473
12,HCC-15,1.01
13,NCI-H1793,0.573
14,PC-14,0.421
15,EKVX,0.677
16,LC-2-ad,0.768

# Same assay, conditions: first compound 0.06325 µM
row,Cell Line,relative viability
1,NCI-H2405,0.924
2,HOP-62,0.91
3,LU99A,0.352
4,BEN,0.701
5,HARA,0.209
6,HCC-78,0.567
7,NCI-H322M,0.598
8,LCLC-97TM1,0.219
9,A-427,0.849
10,NCI-H441,1.18
11,NCI-H460,0.438
12,NCI-H2347,0.692
13,NCI-H1395,0.393
14,201T,0.531
15,NCI-H1915,0.712
16,HCC-827,0.155

row,Cell Line,relative viability
1,LXF-289,0.975
2,NCI-H23,0.242
3,NCI-H647,0.403
4,CAL-12T,0.531
5,NCI-H1651,0.289
6,EPLC-272H,0.319
7,NCI-H1355,0.67
8,NCI-H3122,1
9,NCI-H1437,1.11
10,NCI-H1755,0.405
11,HCC-15,1.05
12,NCI-H1793,0.271
13,PC-14,0.272
14,EKVX,0.653
15,LC-2-ad,0.817

# Same assay, conditions: first compound 0.2 µM
row,Cell Line,relative viability
1,NCI-H2405,0.762
2,HOP-62,0.516
3,LU99A,0.369
4,BEN,0.842
5,HARA,0.402
6,HCC-78,0.684
7,NCI-H322M,0.607
8,LCLC-97TM1,0.253
9,A-427,0.709
10,NCI-H441,1.3
11,NCI-H1734,0.586
12,NCI-H460,0.576
13,NCI-H2347,0.778
14,NCI-H1395,0.424
15,201T,0.625
16,NCI-H1915,0.705

row,Cell Line,relative viability
1,HCC-827,0.261
2,LXF-289,1.1
3,NCI-H23,0.227
4,NCI-H647,0.572
5,CAL-12T,0.655
6,NCI-H1651,0.508
7,EPLC-272H,0.333
8,NCI-H1355,0.749
9,NCI-H3122,0.984
10,NCI-H1437,1.09
11,NCI-H1755,0.47
12,HCC-15,1.16
13,NCI-H1793,0.612
14,PC-14,0.423
15,EKVX,0.595
16,LC-2-ad,0.848

# Same assay, conditions: first compound 0.6325 µM
row,Cell Line,relative viability
1,NCI-H2405,0.722
2,HOP-62,0.434
3,LU99A,0.36
4,BEN,0.627
5,HARA,0.276
6,HCC-78,0.732
7,NCI-H322M,0.51
8,LCLC-97TM1,0.269
9,A-427,0.8
10,NCI-H441,1
11,NCI-H1734,0.469
12,NCI-H460,0.621
13,NCI-H2347,0.745
14,NCI-H1395,0.372
15,201T,0.609
16,NCI-H1915,0.703

row,Cell Line,relative viability
1,HCC-827,0.265
2,LXF-289,0.986
3,NCI-H23,0.182
4,NCI-H647,0.425
5,CAL-12T,0.582
6,NCI-H1651,0.471
7,EPLC-272H,0.192
8,NCI-H1355,0.691
9,NCI-H3122,0.991
10,NCI-H1437,1.09
11,NCI-H1755,0.399
12,HCC-15,1.18
13,NCI-H1793,0.309
14,PC-14,0.322
15,EKVX,0.692
16,LC-2-ad,0.798

# Same assay, conditions: first compound 2 µM
row,Cell Line,relative viability
1,NCI-H2405,0.428
2,HOP-62,0.685
3,LU99A,0.223
4,BEN,0.497
5,HARA,0.493
6,HCC-78,0.202
7,NCI-H322M,0.498
8,LCLC-97TM1,0.113
9,A-427,0.776
10,NCI-H441,1.1
11,NCI-H1734,0.444
12,NCI-H460,0.456
13,NCI-H2347,0.704
14,NCI-H1395,0.411
15,201T,0.576
16,NCI-H1915,0.713

row,Cell Line,relative viability
1,HCC-827,0.114
2,LXF-289,1.18
3,NCI-H23,0.21
4,NCI-H647,0.382
5,CAL-12T,0.726
6,NCI-H1651,0.417
7,EPLC-272H,0.293
8,NCI-H1355,0.544
9,NCI-H3122,0.913
10,NCI-H1437,0.609
11,NCI-H1755,0.476
12,HCC-15,1
13,NCI-H1793,0.347
14,PC-14,0.299
15,EKVX,0.436
16,LC-2-ad,0.619
